What was measured:
S. aureus = assay: Wipe test: removal of S. aureus from ceramic tile and transfer to clean tile, visualised with indicator spray; conditions: WTCL wipe treated with aluminum chlorohydrate (1% W/W, add-on approx. 6 to 7%) and 1% Reichardt's dye dots; 100 microliter drops of 10^7 CFU/ml S. aureus on ceramic tile; control wipe's "X" readily visible
Method: A wire-textured coform laminate (WTCL) was treated with aluminum chlorohydrate (1% W/W) using a dip and nip procedure, with a resulting add-on of approximately 6 to 7%. The treated WTCL was then treated with a 1% solution of Reichardt's dye indicator (prepared in acetonitrile) in a small dot pattern using a syringe. Control WTCL wipe material without aluminum chlorohydrate was also used for this experiment as a control. Two 100 microliter drops of 10^7 CFU/ml S. aureus were placed onto a ceramic tile. Treated wipe and control material were both used to wipe the drop off of the tile. These wipes were then used to make an “X” onto clean tiles. These tiles were then sprayed with bacterial indicator solution (80 mg/10 mL acetonitrile) using a Chromist® spray can. The treated WTCL was then also sprayed with the indicator. Finally, the treated wipe (now clearly visible) containing the bacteria was once again used to wipe a clean area of tile. This area was then sprayed with the indicator. The “X” for the control was readily visible.

live culture yogurt = assay: Colour change of Reichardt's dye lines on paper towel after wiping a contaminated cutting board; conditions: VIVA paper towels sprayed with saturated Reichardt's dye in isopropanol with potassium hydroxide; cutting board with light smears of live culture yogurt
Excerpt: Sheets of VIVA® paper towels (Kimberly-Clark Corporation, Neenah Wis.) were placed on a flat surface, three sheets wide. A stainless steel grilling grate (Weber Company, purchased from Home Depot store) was placed onto top of the sheets. Next a 100-milliliter saturated solution of Reichardt's dye in isopropanol with 10 milliliters of potassium hydroxide was placed into a container and then sprayed (Chromist sprayer) over the grilling grate with the VIVA® towels underneath. The grilling grate was removed and the towels were hung in a fumehood and allowed to dry. The paper towels now had multiple parallel lines of the Reichardt's dye across the paper towel. The lines were 4 centimeters apart. Onto a cutting board surface (plastic cutting boards, Kroger grocery store) was applied light smears (3 cm×15 cm) of live culture yogurt. Next, the treated VIVA® paper towels were used to wipe the surface of the cutting board.

| Compound | transfer of bacteria from used wipe to clean tile (S. aureus) | color of the Reichardt's dye lines on contact with contaminated surface (live culture yogurt) |
| --- | --- | --- |
| aluminum chlorohydrate | did not transfer bacteria to the clean tile | – |
| [O-]c1c(-c2ccccc2)cc(-[n+]2c(-c3ccccc3)cc(-c3ccccc3)cc2-c2ccccc2)cc1-c1ccccc1 [Reichardt's dye, 4-(2,4,6-triphenylpyridinium-1-yl)-2,6-diphenylphenolate] | – | rapidly discharged |

Source: patent publication US8871232B2, “Self-indicating wipe for removing bacteria from a surface” (Kimberly-Clark Worldwide, Inc., priority 2007, dated 2014)
